# According to patent US20100286145A1, “ISOPHTHALAMIDE DERIVATIVES INHIBITING BETA-SECRETASE ACTIVITY” (CoMentis, Inc., priority 2007, published 2010):
# Target: memapsin 2 (Homo sapiens, UniProt P56817)
# Assay: Inhibition of memapsin 2 beta-secretase activity (fluorogenic substrate FS-2)
# Format: biochemical
# Conditions: memapsin 2, pH 4, 37° C., 20 minutes pre-incubation; read-out: M2Ki
# Procedure: Potency of compounds were determined by measurement of their inhibition of memapsin 2 activity toward a fluorescent substrate. Kinetic inhibition experiments were performed using the procedure as described in Ermolieff, et al. (Biochemistry 39:12450-12456 (2000), the teachings of which are incorporated hereby in their entirety). Briefly, assays were performed at pH 4, 37° C., by pre-incubation of memapsin 2 enzyme with compound for 20 minutes. Activity measurements were initiated by addition of a fluorogenic substrate FS-2 (Bachem Americas, Torrance, Calif.) MCA-SEVNLDAEFR-DNP (SEQ ID NO.: 2). The substrate was derived from 10 amino acids of the human amyloid precursor protein (APP), with the Swedish variant amino acids at the beta-secretase cleavage site. The terminal amino acid was modified from arginine to lysine to facilitate derivatization with a functional group for detection by autofluorescence. The amino acid sequence of the “core” peptide of the substrate is SEVNLDAEFK (SEQ ID NO.: 3). The amino terminus was derivatized with (7-methoxycoumarin-4-yl)acetyl (MCA), and the epsilon amine of the lysine side chain of the terminal residue (K in sequence SEVNLDAEFK (SEQ ID NO.: 3)) was derivatized with 2,4-dinitorphenyl (DNP).
# Fluorescent signal increase over time was measured as a rate of hydrolysis of the peptide substrate. Inhibition of hydrolytic rate was expressed relative to uninhibited controls and fit to a model for tight-binding inhibitors (J. Bieth, in “Proteinase Inhibitors,” Bayer Symposium V, 463-469, 1974, which is herein incorporated by reference for all purposes in its entirety).
# memapsin 2, sequence (P56817 46-501): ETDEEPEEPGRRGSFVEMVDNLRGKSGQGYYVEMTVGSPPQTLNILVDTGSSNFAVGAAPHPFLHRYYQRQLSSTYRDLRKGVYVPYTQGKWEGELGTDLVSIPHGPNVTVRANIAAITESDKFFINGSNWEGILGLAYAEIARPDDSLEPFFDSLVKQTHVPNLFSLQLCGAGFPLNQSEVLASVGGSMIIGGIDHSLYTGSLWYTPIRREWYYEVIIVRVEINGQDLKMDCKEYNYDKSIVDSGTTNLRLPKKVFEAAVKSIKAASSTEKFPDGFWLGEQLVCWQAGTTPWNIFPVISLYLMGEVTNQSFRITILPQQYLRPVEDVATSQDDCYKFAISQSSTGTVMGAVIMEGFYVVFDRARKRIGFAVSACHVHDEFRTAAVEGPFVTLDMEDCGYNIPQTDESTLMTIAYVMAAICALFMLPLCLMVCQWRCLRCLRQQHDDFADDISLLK
row,Ki [nM],Compound
1,> 501,"COC(=O)c1coc(-c2cc(C(=O)N[C@@H](Cc3ccccc3)[C@H](O)CNCc3cccc(OC)c3)cc(C(=O)N(C)Cc3nc(C)cs3)c2)n1 [Compound 66, methyl 2-(3-((2S,3R)-3-hydroxy-4-(3-methoxybenzylamino)-1-phenylbutan-2-ylcarbamoyl)-5-(methyl((4-methylthiazol-2-yl)methyl)carbamoyl)phenyl)oxazole-4-carboxylate]"
2,301 to 500,"Cc1c(CNC[C@@H](O)[C@H](Cc2ccccc2)NC(=O)c2cc(C(=O)N[C@H](C)c3ccccc3)cc(N(C)S(C)(=O)=O)c2)cnn1C(C)(C)C [Compound 120, N1-((2S,3R)-4-((1-tert-butyl-5-methyl-1H-pyrazol-4-yl)methylamino)-3-hydroxy-1-phenylbutan-2-yl)-5-(N-methylmethylsulfonamido)-N3-((R)-1-phenylethyl)isophthalamide]"
3,< 300,"COc1cccc(CNC[C@@H](O)[C@H](Cc2ccccc2)NC(=O)c2cc(O)cc(C(=O)N(C)Cc3nc(C)cs3)c2)c1 [Compound 38, 5-hydroxy-N1-((2S,3R)-3-hydroxy-4-(3-methoxybenzylamino)-1-phenylbutan-2-yl)-N3-methyl-N3-((4-methylthiazol-2-yl)methyl)isophthalamide]"
4,> 501,"COc1cccc(CNC[C@@H](O)[C@H](Cc2ccccc2)NC(=O)c2cccc(C(=O)Nc3nc(C)cs3)c2)c1 [Compound 80, N1-((2S,3R)-3-hydroxy-4-(3-methoxybenzylamino)-1-phenylbutan-2-yl)-N3-(4-methylthiazol-2-yl)isophthalamide]"
5,> 501,"COc1cccc(CNC[C@@H](O)[C@H](Cc2ccccc2)NC(=O)c2cc(C(=O)NCc3cccc(C)n3)cc(N(C)S(C)(=O)=O)c2)c1 [Compound 127, N1-((2S,3R)-3-hydroxy-4-(3-methoxybenzylamino)-1-phenylbutan-2-yl)-5-(N-methylmethylsulfonamido)-N3-((6-methylpyridin-2-yl)methyl)isophthalamide]"
6,> 501,"Cc1csc(CN(C)C(=O)c2cccc(C(=O)N[C@@H](Cc3ccccc3)[C@H](O)CNCc3cccnc3)c2)n1 [Compound 15, N1-((2S,3R)-3-hydroxy-1-phenyl-4-(pyridin-3-ylmethylamino)butan-2-yl)-N3-methyl-N3-((4-methylthiazol-2-yl)methyl)isophthalamide]"
7,> 501,"Cc1csc(CN(C)C(=O)c2cccc(C(=O)N[C@@H](Cc3ccccc3)[C@H](O)CN(Cc3cnn(C)c3)Cc3cnn(C)c3)c2)n1 [Compound 156, N1-((2S,3R)-4-(bis((1-methyl-1H-pyrazol-4-yl)methyl)amino)-3-hydroxy-1-phenylbutan-2-yl)-N3-methyl-N3-((4-methylthiazol-2-yl)methyl)isophthalamide]"
8,> 501,"Cc1csc(CN(C)C(=O)c2cccc(C(=O)N[C@@H](Cc3ccccc3)[C@H](O)CNCc3ccc(C(F)(F)F)nc3)c2)n1 [Compound 7, N1-((2S,3R)-3-hydroxy-1-phenyl-4-((6-(trifluoromethyl)pyridin-3-yl)methylamino)butan-2-yl)-N3-methyl-N3-((4-methylthiazol-2-yl)methyl)isophthalamide]"
9,> 501,"COC(=O)[C@@H]1COC(c2cc(C(=O)N[C@@H](Cc3ccccc3)[C@H](O)CNCc3cccc(OC)c3)cc(C(=O)N(C)Cc3nc(C)cs3)c2)=N1 [Compound 63, (S)-methyl 2-(3-((2S,3R)-3-hydroxy-4-(3-methoxybenzylamino)-1-phenylbutan-2-ylcarbamoyl)-5-(methyl((4-methylthiazol-2-yl)methyl)carbamoyl)phenyl)-4,5-dihydrooxazole-4-carboxylate]"

# Same assay, conditions: memapsin 2, pH 4, 37° C., fluorogenic substrate FS-2; read-out: M2Ki
row,Compound,Ki [nM]
1,"COC(OC)C(C)c1cncc(CNC[C@@H](O)[C@H](Cc2ccccc2)NC(=O)c2cccc(C(=O)N(C)Cc3nc(C)cs3)c2)c1 (stereo partly drawn) [Compound 284, N1-((2S,3R)-4-((5-(1,1-dimethoxypropan-2-yl)pyridin-3-yl)methylamino)-3-hydroxy-1-phenylbutan-2-yl)-N3-methyl-N3-((4-methylthiazol-2-yl)methyl)isophthalamide]",< 300
2,"Cc1csc(CN(C)C(=O)c2cccc(C(=O)N[C@@H](Cc3ccccc3)[C@H](O)CNCc3cc(-c4ccncc4)cc(C(F)(F)F)c3)c2)n1 [Compound 275, N1-((2S,3R)-3-hydroxy-1-phenyl-4-(3-(pyridin-4-yl)-5-(trifluoromethyl)benzylamino)butan-2-yl)-N3-methyl-N3-((4-methylthiazol-2-yl)methyl)isophthalamide]",< 300

# The next lines start with the values.
row,Ki [nM],Compound
1,> 501,"COc1cccc(CNC[C@@H](O)[C@H](Cc2ccccc2)NC(=O)c2cc(C(=O)N(C)Cc3nc(C)cs3)cc(C3CCC(O)C3)c2)c1 (stereo partly drawn) [Compound 307, N1-((2S,3R)-3-hydroxy-4-(3-methoxybenzylamino)-1-phenylbutan-2-yl)-5-(3-hydroxycyclopentyl)-N3-methyl-N3-((4-methylthiazol-2-yl)methyl)isophthalamide]"
2,< 300,"Cc1csc(CN(C)C(=O)c2cc(C(=O)N[C@@H](Cc3ccccc3)[C@H](O)CNCc3cccc(C(F)(F)F)c3)cc(-c3ncco3)c2)n1 [Compound 289, N1-((2S,3R)-3-hydroxy-1-phenyl-4-(3-(trifluoromethyl)benzylamino)butan-2-yl)-N3-methyl-N3-((4-methylthiazol-2-yl)methyl)-5-(oxazol-2-yl)isophthalamide]"
3,< 300,"Cc1csc(CN(C)C(=O)c2cccc(C(=O)N[C@@H](Cc3ccccc3)[C@H](O)CNCc3cnn(C)c3)c2)n1 [Compound 287, N1-((2S,3R)-3-hydroxy-4-((1-methyl-1H-pyrazol-4-yl)methylamino)-1-phenylbutan-2-yl)-N3-methyl-N3-((4-methylthiazol-2-yl)methyl)isophthalamide]"
4,< 300,"Cc1csc(CN(C)C(=O)c2cccc(C(=O)N[C@@H](Cc3ccccc3)[C@H](O)CNCc3cncc(C(C)CO)c3)c2)n1 (stereo partly drawn) [Compound 313, N1-((2S,3R)-3-hydroxy-4-((5-(1-hydroxypropan-2-yl)pyridin-3-yl)methylamino)-1-phenylbutan-2-yl)-N3-methyl-N3-((4-methylthiazol-2-yl)methyl)isophthalamide]"
5,< 300,"CC(C)c1cncc(CNC[C@@H](O)[C@H](Cc2ccccc2)NC(=O)c2cccc(C(=O)N(C)Cc3nc(C(F)F)cs3)c2)c1 [Compound 285, N1-((4-(difluoromethyl)thiazol-2-yl)methyl)-N3-((2S,3R)-3-hydroxy-4-((5-isopropylpyridin-3-yl)methylamino)-1-phenylbutan-2-yl)-N1-methylisophthalamide]"
6,< 300,"COc1cccc([C@@H](C)NC[C@@H](O)[C@H](Cc2ccccc2)NC(=O)c2cc(C(=O)N(C)Cc3nc(C)cs3)cc(-c3ncco3)c2)c1 [Compound 290, N1-((2S,3R)-3-hydroxy-4-((R)-1-(3-methoxyphenyl)ethylamino)-1-phenylbutan-2-yl)-N3-methyl-N3-((4-methylthiazol-2-yl)methyl)-5-(oxazol-2-yl)isophthalamide]"
7,< 300,"CC(C)c1cncc(CNC[C@@H](O)[C@H](Cc2ccccc2)NC(=O)c2cccc(C(=O)N(C)Cc3nc(CO)cs3)c2)c1 [Compound 316, N1-((2S,3R)-3-hydroxy-4-((5-isopropylpyridin-3-yl)methylamino)-1-phenylbutan-2-yl)-N3-((4-(hydroxymethyl)thiazol-2-yl)methyl)-N3-methylisophthalamide]"
